For orientation: GI50 means the concentration giving 50% growth inhibition. The TGI is the concentration giving total growth inhibition. High values mean less potent growth arrest, low ones more potent growth arrest.

This note sets out measurements from PubChem BioAssay (NCI).

What all share (experiment): DTP human tumour cell line panel, 48 h
For assay [1], the system named is ACHN renal.
For assay [2], the system named is HCT-15 colon.
Assay [3] concerns HL-60(TB) leukemia.
Assay [4] relates to KM12 colon.
Assay [5] concerns M14 melanoma.
For assay [6], the system named is NCI-H460 lung.
The subject of assay [7] is OVCAR-5 ovarian.
For assay [8], the system named is SK-MEL-28 melanoma.
The subject of assay [9] is SN12C renal.
Assay [10] has as its system SW-620 colon.

“And” between values parts separate entries of the source, which are not always exact repeats. Equal entries are not always repeated.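 Compound exposure: 48 hours, 5 concentrations, 96-well plates. GI50 is the concentration that inhibits growth by half. TGI: concentration producing complete growth inhibition.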

`COc1ccccc1/C=C/C(=O)c1ccccc1`: the GI50 in assay [1] is 5.04 µM; in assay [2], 3.47 µM; in assay [3], 2.18 µM; in assay [4], 4.04 µM; in assay [5], 12.2 µM; in [6], 13.7 µM. For the same molecule, the GI50 is 18.9 µM in assay [7], 16.6 µM in assay [8], 7.55 µM in assay [9] and 2.66 µM in assay [10]. Further, the TGI came to 15.2 µM in assay [1]; 14.7 µM in [2]; 20.9 µM in assay [3]; 14.3 µM in [4]; 27 µM in assay [5]; 31.9 µM in assay [6]. The TGI is 36.5 µM in assay [7], 30.8 µM in assay [8], 22.9 µM in assay [9] and 7.08 µM in assay [10].

Consider `CCCOc1ccc2nc(NC(=O)OC)[nH]c2c1`, for which the GI50 in [1] is 1.2 µM; in assay [2], 0.13 µM; in [3] it was 0.171 µM; in [4], 0.0974 µM; in [5] it was 0.14 µM; in [6], 0.324 µM. For the same molecule, the GI50 in [7] is 0.441 µM; in assay [8], 0.285 µM; in [9], 0.597 µM; in assay [10], 0.133 µM. Besides, the total growth inhibition concentration (TGI) in assay [1] is more than 100 µM; in [2] it was more than 100 µM; in [3], 0.681 µM; in assay [4], more than 100 µM; in assay [5], more than 100 µM; in assay [6], more than 100 µM. For the same molecule, the TGI in assay [7], in [8], in [9] and in assay [10] was more than 100 µM in each case.

Turning to `COc1ccc(Cn2c3c(cc(OS(=O)(=O)C(F)(F)F)c2=O)Cc2ccccc2-3)cc1`, the GI50 was 5.25 µM in [1]; 3.6 µM in assay [3]; 41.1 µM in [4]; 11.4 µM in [5]; more than 100 µM in assay [7]; 22.8 µM in assay [8]. Moreover, the values for the GI50 in assay [9] and in assay [10] were 5.91 µM and 5.29 µM, respectively. The total growth inhibition concentration (TGI) in [1] is 50 µM and > 100 µM; in [2], 50 µM and > 100 µM; in [3] it was 46.2 µM and 17 µM; in assay [4], 50 µM and > 100 µM; in assay [5], 15.4 µM and 30.8 µM; in [6] it was 50 µM and 36.4 µM. Also, the TGI in assay [7] is 50 µM and > 100 µM; in [8], 50 µM and > 100 µM; in [9] it was 50 µM and 47 µM; in assay [10], 50 µM and > 100 µM.

With `CCN(CC)C(=S)Oc1cc2oc(=O)cc(C)c2cc1Cl`, the TGI in assay [1], in assay [2], in assay [3], in assay [4], in [5] and in assay [6] was more than 100 µM throughout. Moreover, the concentration for total growth inhibition (TGI) in assay [7], in [8], in assay [9] and in assay [10] was more than 100 µM throughout.

For `Nc1ccc(C(=O)CC(N)C(=O)O)cc1O` (stereo not drawn), the TGI in assay [1], in assay [2], in assay [3], in assay [4], in [5] and in assay [6] was more than 100 µM throughout. The TGI in assay [7], in assay [8], in assay [9] and in assay [10] was more than 100 µM throughout.

On to `COc1cc(-c2cn(-c3ccc(Cl)c(Cl)c3)c(=O)n2C(C)=O)cc(OC)c1OC`, for which the GI50 was 10.4 µM in [1]; 18.1 µM in assay [2]; 14.2 µM in assay [3]; 12.3 µM in [4]; 16.7 µM in assay [5]; 10.5 µM in assay [6]. Further, the GI50 was 13 µM in assay [7], 11.6 µM in [8], 12.3 µM in assay [9] and 12.9 µM in assay [10]. For the same molecule, the concentration for total growth inhibition (TGI) in assay [1] worked out at 30.5 µM; in assay [2] it was 45.9 µM; in assay [3], 33.9 µM; in assay [4], 28.6 µM; in assay [5] it was 45.7 µM; in assay [6], 25.1 µM. Also, the TGI in assay [7] stood at 27.3 µM; in assay [8] it was 29.6 µM; in assay [9] it was 31.1 µM; in assay [10], 29.8 µM.

On to `Nc1ccccc1C#C/C=C\C#Cc1ccccc1`, for which the GI50 in [1] is 23.9 µM; in assay [2], 26.2 µM; in assay [3], 13.7 µM; in [4], 4.51 µM; in [5], 15.8 µM; in assay [6] it was 18.4 µM. The GI50 in [7] is 15.5 µM; in assay [8], 11.7 µM; in [9], 13.4 µM; in assay [10], 19.3 µM. The TGI is 75 µM in assay [1]; 92.3 µM in assay [2]; more than 100 µM in assay [3]; 20.2 µM in [4]; 32.4 µM in assay [5]; 52.6 µM in [6]. Moreover, the TGI in [7] is 51.6 µM; in assay [8], 27.1 µM; in assay [9], 29.7 µM; in [10], 41.7 µM.

Regarding `Cc1cc(S(=O)(=O)NC#N)c(S/C(=N\Nc2ccc([N+](=O)[O-])cc2)c2ccc(Cl)cc2)cc1Cl`, the GI50 in assay [1] is 34.1 µM; in [2], 11.6 µM; in assay [3] it was 36.2 µM; in [4], 24.6 µM; in assay [5] it was 54.5 µM; in assay [6] it was 26.7 µM. Also, the GI50 in assay [7] is 44 µM; in assay [8], 31.2 µM; in assay [9] it was more than 100 µM; in assay [10] it was 21.1 µM. The concentration for total growth inhibition (TGI) was more than 100 µM in assay [1]; 59.7 µM in assay [2]; more than 100 µM in assay [3]; 56.9 µM in [4]; more than 100 µM in assay [5]; more than 100 µM in assay [6]. The TGI in assay [7] is more than 100 µM; in assay [8], more than 100 µM; in assay [9], more than 100 µM; in [10], 52.1 µM.
